From patent US20230085307A1, “PYRIDAZINONE COMPOUND AND HERBICIDE” (NISSAN CHEMICAL CORPORATION, priority 2019, published 2023)

Columns and labels:
barnyard grass [1] = experiment: Test Example 5: herbicidal effect by foliage application, plastic box (Table 20, symbol H); type: in vivo, barnyard grass (Echinochloa crus-galli); details: foliage application, 320 g/ha, three weeks after application
How it was run: (§1)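 Sow seeds spot-wise in sterilized diluvial soil; cover with ~1.5 cm soil. Grow 14 days in greenhouse, 25° C. to 30° C. Spray foliage with emulsion diluted to predetermined amount. Rate effect after 3 weeks.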

oval-leafed pondweed = experiment: Test Example 1: herbicidal activity, application before weed generation under submerged conditions (Table 16, symbol C); type: in vivo, oval-leafed pondweed (Monochoria vaginalis); details: amount of applied herbicide 320 g/ha
How it was run: (§2)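 Alluvial soil was flooded to 4 cm depth, weed seeds were sown mixed and 2.5-leaf rice seedlings were transplanted. On sowing day, the compound's emulsion, diluted in water to a set dose, was applied to the water surface. Plants grew at 25–30 °C and were scored 0–5 after three weeks.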

wild oat [2] = experiment: Test Example 4: herbicidal effect by soil treatment (Table 19, symbol I); type: in vivo, wild oat (Avena fatua); details: amount of applied herbicide 320 g/ha
How it was run: (§3)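 Applied as a water-diluted emulsion, the compound was sprayed onto soil covering newly sown seeds. Evaluation came three weeks after application, in a greenhouse held at 25° C. to 30° C.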

lambsquarters [3] = experiment: Test Example 5: herbicidal effect by foliage application, plastic box (Table 20, symbol O); type: in vivo, lambsquarters (Chenopodium album); details: foliage application, 320 g/ha, three weeks after application
How it was run: as §1

rice flat sedge = experiment: Test Example 3: herbicidal effect by foliage application, Wagner pot (Table 18, symbol E); type: in vivo, rice flat sedge (Cyperus iria); details: 320 g/ha
How it was run: (§4)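 Plants were sown in alluvial soil held under 0.1–0.5 cm standing water and grown 14 days in a greenhouse at 25–30 °C. An emulsifiable formulation, water-diluted to the set dose, was then sprayed onto the foliage, and effects were scored three weeks later using previously defined criteria.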

chickweed = experiment: Test Example 4: herbicidal effect by soil treatment (Table 19, symbol P); type: in vivo, common chickweed (Stellaria media); details: amount of applied herbicide 320 g/ha
How it was run: as §3

windgrass [4] = experiment: Test Example 5: herbicidal effect by foliage application, plastic box (Table 20, symbol L); type: in vivo, windgrass (Apera spica-venti); details: foliage application, 320 g/ha, three weeks after application
How it was run: as §1

Chinese sprangletop = experiment: Test Example 3: herbicidal effect by foliage application, Wagner pot (Table 18, symbol D); type: in vivo, chinese sprangletop (Leptochloa chinensis); details: 320 g/ha
How it was run: as §4

barnyard grass [5] = experiment: Test Example 4: herbicidal effect by soil treatment (Table 19, symbol H); type: in vivo, barnyard grass (Echinochloa crus-galli); details: amount of applied herbicide 320 g/ha
How it was run: as §3

blackgrass [6] = experiment: Test Example 4: herbicidal effect by soil treatment (Table 19, symbol J); type: in vivo, blackgrass (Alopecurus myosuroides); details: amount of applied herbicide 320 g/ha
How it was run: as §3

Italian ryegrass [7] = experiment: Test Example 5: herbicidal effect by foliage application, plastic box (Table 20, symbol K); type: in vivo, Italian ryegrass (Lolium multiflorum); details: foliage application, 320 g/ha, three weeks after application
How it was run: as §1

Japanese bulrush = experiment: Test Example 1: herbicidal activity, application before weed generation under submerged conditions (Table 16, symbol B); type: in vivo, Japanese bulrush (Schoenoplectus juncoides); details: amount of applied herbicide 320 g/ha
How it was run: as §2

redroot pigweed = experiment: Test Example 4: herbicidal effect by soil treatment (Table 19, symbol N); type: in vivo, redroot pigweed (Amaranthus retroflexus); details: amount of applied herbicide 320 g/ha
How it was run: as §3

windgrass [8] = experiment: Test Example 4: herbicidal effect by soil treatment (Table 19, symbol L); type: in vivo, windgrass (Apera spica-venti); details: amount of applied herbicide 320 g/ha
How it was run: as §3

green foxtail [9] = experiment: Test Example 4: herbicidal effect by soil treatment (Table 19, symbol G); type: in vivo, green foxtail (Setaria viridis); details: amount of applied herbicide 320 g/ha
How it was run: as §3

blackgrass [10] = experiment: Test Example 5: herbicidal effect by foliage application, plastic box (Table 20, symbol J); type: in vivo, blackgrass (Alopecurus myosuroides); details: foliage application, 320 g/ha, three weeks after application
How it was run: as §1

late watergrass = experiment: Test Example 1: herbicidal activity, application before weed generation under submerged conditions (Table 16, symbol A); type: in vivo, late watergrass (Echinochloa oryzicola); details: amount of applied herbicide 320 g/ha
How it was run: as §2

southern crabgrass [11] = experiment: Test Example 5: herbicidal effect by foliage application, plastic box (Table 20, symbol F); type: in vivo, southern crabgrass (Digitaria ciliaris); details: foliage application, 320 g/ha, three weeks after application
How it was run: as §1

persian speedwell [12] = experiment: Test Example 5: herbicidal effect by foliage application, plastic box (Table 20, symbol R); type: in vivo, Persian speedwell (Veronica persica); details: foliage application, 320 g/ha, three weeks after application
How it was run: as §1

velvetleaf [13] = experiment: Test Example 4: herbicidal effect by soil treatment (Table 19, symbol M); type: in vivo, velvetleaf (Abutilon theophrasti); details: amount of applied herbicide 320 g/ha
How it was run: as §3

southern crabgrass [14] = experiment: Test Example 4: herbicidal effect by soil treatment (Table 19, symbol F); type: in vivo, southern crabgrass (Digitaria ciliaris); details: amount of applied herbicide 320 g/ha
How it was run: as §3

wild oat [15] = experiment: Test Example 5: herbicidal effect by foliage application, plastic box (Table 20, symbol I); type: in vivo, wild oat (Avena fatua); details: foliage application, 320 g/ha, three weeks after application
How it was run: as §1

persian speedwell [16] = experiment: Test Example 4: herbicidal effect by soil treatment (Table 19, symbol R); type: in vivo, Persian speedwell (Veronica persica); details: amount of applied herbicide 320 g/ha
How it was run: as §3

velvetleaf [17] = experiment: Test Example 5: herbicidal effect by foliage application, plastic box (Table 20, symbol M); type: in vivo, velvetleaf (Abutilon theophrasti); details: foliage application, 320 g/ha, three weeks after application
How it was run: as §1

lambsquarters [18] = experiment: Test Example 4: herbicidal effect by soil treatment (Table 19, symbol O); type: in vivo, lambsquarters (Chenopodium album); details: amount of applied herbicide 320 g/ha
How it was run: as §3

green foxtail [19] = experiment: Test Example 5: herbicidal effect by foliage application, plastic box (Table 20, symbol G); type: in vivo, green foxtail (Setaria viridis); details: foliage application, 320 g/ha, three weeks after application
How it was run: as §1

barnyard grass [20] = experiment: Test Example 3: herbicidal effect by foliage application, Wagner pot (Table 18, symbol H); type: in vivo, barnyard grass (Echinochloa crus-galli); details: 320 g/ha
How it was run: as §4

Italian ryegrass [21] = experiment: Test Example 4: herbicidal effect by soil treatment (Table 19, symbol K); type: in vivo, Italian ryegrass (Lolium multiflorum); details: amount of applied herbicide 320 g/ha
How it was run: as §3

Structure (SMILES) | herbicidal effect on barnyard grass (H) (barnyard grass [1]) | Herbicidal effect, C: oval-leafed pondweed (oval-leafed pondweed) | I: wild oat, herbicidal effect grade (wild oat [2]) | herbicidal effect on lambsquarters (O) (lambsquarters [3]) | herbicidal effect on rice flat sedge (E) (rice flat sedge) | P: chickweed, herbicidal effect grade (chickweed) | herbicidal effect on windgrass (L) (windgrass [4]) | herbicidal effect on Chinese sprangletop (D) (Chinese sprangletop) | H: barnyard grass, herbicidal effect grade (barnyard grass [5]) | J: blackgrass, herbicidal effect grade (blackgrass [6]) | herbicidal effect on Italian ryegrass (K) (Italian ryegrass [7]) | Herbicidal effect, B: Japanese bulrush (Japanese bulrush) | N: redroot pigweed, herbicidal effect grade (redroot pigweed) | L: windgrass, herbicidal effect grade (windgrass [8]) | G: green foxtail, herbicidal effect grade (green foxtail [9]) | herbicidal effect on blackgrass (J) (blackgrass [10]) | Herbicidal effect, A: late watergrass (late watergrass) | herbicidal effect on southern crabgrass (F) (southern crabgrass [11]) | herbicidal effect on persian speedwell (R) (persian speedwell [12]) | M: velvetleaf, herbicidal effect grade (velvetleaf [13]) | also measured
COc1ccc(-c2sc3cc(OC)c(Cl)cc3c2-c2c(O)c(C)nn(C)c2=O)cc1 [5-070] | 0 (Herbicidal rate of 5% or less (almost no effect)) | 0 (Herbicidal rate of 5% or less (almost no effect)) | 0 (Herbicidal rate of 5% or less (almost no effect)) | 0 (Herbicidal rate of 5% or less (almost no effect)) | 0 (Herbicidal rate of 5% or less (almost no effect)) | 1 (Herbicidal rate of 5% or more and less than 20%) | 0 (Herbicidal rate of 5% or less (almost no effect)) | 0 (Herbicidal rate of 5% or less (almost no effect)) | 0 (Herbicidal rate of 5% or less (almost no effect)) | 0 (Herbicidal rate of 5% or less (almost no effect)) | 0 (Herbicidal rate of 5% or less (almost no effect)) | 2 (Herbicidal rate of 20% or more and less than 40%) | 0 (Herbicidal rate of 5% or less (almost no effect)) | 0 (Herbicidal rate of 5% or less (almost no effect)) | 0 (Herbicidal rate of 5% or less (almost no effect)) | 0 (Herbicidal rate of 5% or less (almost no effect)) | 0 (Herbicidal rate of 5% or less (almost no effect)) | 0 (Herbicidal rate of 5% or less (almost no effect)) | 4 (Herbicidal rate of 70% or more and less than 90%) | 0 (Herbicidal rate of 5% or less (almost no effect)) | F: southern crabgrass, herbicidal effect grade (southern crabgrass [14]): 0 (Herbicidal rate of 5% or less (almost no effect)); herbicidal effect on wild oat (I) (wild oat [15]): 0 (Herbicidal rate of 5% or less (almost no effect)); R: persian speedwell, herbicidal effect grade (persian speedwell [16]): 3 (Herbicidal rate of 40% or more and less than 70%); herbicidal effect on velvetleaf (M) (velvetleaf [17]): 0 (Herbicidal rate of 5% or less (almost no effect)); O: lambsquarters, herbicidal effect grade (lambsquarters [18]): 0 (Herbicidal rate of 5% or less (almost no effect)); herbicidal effect on green foxtail (G) (green foxtail [19]): 0 (Herbicidal rate of 5% or less (almost no effect)); herbicidal effect on barnyard grass (H) (barnyard grass [20]): 3 (Herbicidal rate of 40% or more and less than 70%); K: Italian ryegrass, herbicidal effect grade (Italian ryegrass [21]): 0 (Herbicidal rate of 5% or less (almost no effect))
CCCC(=O)Oc1c(C)nn(C)c(=O)c1-c1c(-c2ccccc2OCC)sc2cc(OC)c(Cl)cc12 [5-073] | 5 (Herbicidal rate of 90% or more (almost completely withered)) | 4 (Herbicidal rate of 70% or more and less than 90%) | 0 (Herbicidal rate of 5% or less (almost no effect)) | 4 (Herbicidal rate of 70% or more and less than 90%) | 0 (Herbicidal rate of 5% or less (almost no effect)) | 0 (Herbicidal rate of 5% or less (almost no effect)) | 3 (Herbicidal rate of 40% or more and less than 70%) | 0 (Herbicidal rate of 5% or less (almost no effect)) | 0 (Herbicidal rate of 5% or less (almost no effect)) | 0 (Herbicidal rate of 5% or less (almost no effect)) | 0 (Herbicidal rate of 5% or less (almost no effect)) | 4 (Herbicidal rate of 70% or more and less than 90%) | 1 (Herbicidal rate of 5% or more and less than 20%) | 0 (Herbicidal rate of 5% or less (almost no effect)) | 2 (Herbicidal rate of 20% or more and less than 40%) | 0 (Herbicidal rate of 5% or less (almost no effect)) | 5 (Herbicidal rate of 90% or more (almost completely withered)) | 5 (Herbicidal rate of 90% or more (almost completely withered)) | 0 (Herbicidal rate of 5% or less (almost no effect)) | 0 (Herbicidal rate of 5% or less (almost no effect)) | F: southern crabgrass, herbicidal effect grade (southern crabgrass [14]): 0 (Herbicidal rate of 5% or less (almost no effect)); herbicidal effect on wild oat (I) (wild oat [15]): 0 (Herbicidal rate of 5% or less (almost no effect)); R: persian speedwell, herbicidal effect grade (persian speedwell [16]): 0 (Herbicidal rate of 5% or less (almost no effect)); herbicidal effect on velvetleaf (M) (velvetleaf [17]): 4 (Herbicidal rate of 70% or more and less than 90%); O: lambsquarters, herbicidal effect grade (lambsquarters [18]): 0 (Herbicidal rate of 5% or less (almost no effect)); herbicidal effect on green foxtail (G) (green foxtail [19]): 5 (Herbicidal rate of 90% or more (almost completely withered)); herbicidal effect on barnyard grass (H) (barnyard grass [20]): 5 (Herbicidal rate of 90% or more (almost completely withered)); K: Italian ryegrass, herbicidal effect grade (Italian ryegrass [21]): 0 (Herbicidal rate of 5% or less (almost no effect))
